The record followed here is ChEMBL document CHEMBL1201862, “PubChem BioAssay data set” (2004).

Data set [1] can be described thus: luciferase reporter signal suppression in cells – H4 neuroglioma cells, luminescence, dose response (AID 1990). Type of data set: functional, cell-based. For orientation: A reporter such as luciferase makes a cellular process visible.
A short description of data set [2]: Luminescence Cell-Based Dose Response HTS to Identify Inhibitors of 5'UTR Stem-Loop Driven Prion Protein mRNA Translation in H4 Neuroglioblastoma Cells. [Related pubchem assays: 1827 (Project Summary), 1813 (Primary HTS)]. The format is functional.
Data set [3] is described as follows: alpha-synuclein stem-loop luciferase translation blockers – H4 neuroglioma cells, luminescence, confirmation (AID 1988). Type of data set: functional, cell-based.
Data set [4] is described as follows: cells. Type of data set: functional.
The target in data set [5] is T1, Aminopeptidase N (Plasmodium falciparum FcB1/Columbia, UniProt O96935).
T1 sequence (O96935 whole entry): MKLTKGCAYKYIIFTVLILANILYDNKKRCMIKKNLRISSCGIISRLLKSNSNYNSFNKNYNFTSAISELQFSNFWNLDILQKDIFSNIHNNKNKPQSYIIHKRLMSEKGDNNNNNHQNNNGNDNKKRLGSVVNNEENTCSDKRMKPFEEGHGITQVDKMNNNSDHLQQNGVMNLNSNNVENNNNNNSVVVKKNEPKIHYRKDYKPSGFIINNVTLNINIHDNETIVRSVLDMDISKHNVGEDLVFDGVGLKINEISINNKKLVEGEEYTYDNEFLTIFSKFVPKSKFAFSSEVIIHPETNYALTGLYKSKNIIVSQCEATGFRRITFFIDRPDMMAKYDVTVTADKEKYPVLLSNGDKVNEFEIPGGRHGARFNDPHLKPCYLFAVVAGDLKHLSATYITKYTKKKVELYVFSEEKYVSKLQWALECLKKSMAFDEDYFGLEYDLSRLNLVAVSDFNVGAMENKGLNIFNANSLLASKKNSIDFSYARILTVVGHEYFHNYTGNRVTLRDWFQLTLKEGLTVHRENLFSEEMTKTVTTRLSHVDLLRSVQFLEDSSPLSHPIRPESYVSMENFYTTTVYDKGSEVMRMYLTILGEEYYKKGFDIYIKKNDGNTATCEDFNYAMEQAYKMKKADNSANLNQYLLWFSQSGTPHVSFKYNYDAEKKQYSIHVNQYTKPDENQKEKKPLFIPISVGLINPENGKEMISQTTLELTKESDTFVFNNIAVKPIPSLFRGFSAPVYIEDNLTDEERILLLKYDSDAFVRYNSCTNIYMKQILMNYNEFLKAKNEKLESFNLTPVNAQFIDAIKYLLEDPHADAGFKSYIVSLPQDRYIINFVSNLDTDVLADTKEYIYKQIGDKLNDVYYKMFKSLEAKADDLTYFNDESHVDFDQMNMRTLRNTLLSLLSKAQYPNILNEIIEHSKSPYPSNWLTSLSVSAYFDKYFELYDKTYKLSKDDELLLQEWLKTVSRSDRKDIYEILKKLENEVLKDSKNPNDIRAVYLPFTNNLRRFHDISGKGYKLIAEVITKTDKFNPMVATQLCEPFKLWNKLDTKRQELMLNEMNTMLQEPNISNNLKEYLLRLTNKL
Description: malaria alanyl aminopeptidase activity blockers – biochemical, fluorogenic H-Leu-NHMec substrate, 1536-well (AID 1445). The arrangement: species or system Plasmodium falciparum 3D7, 3D7.

In data set [6] the test system is P388/ADR. Nature of the data set: cells. Type of data set: functional. Particulars: Mus musculus.
The test system of data set [7] is SN12K1. Description: cells. Type of data set: functional. Particulars: Homo sapiens.
The subject of data set [8] is P388. Description: cells. Type of data set: functional. Particulars: Mus musculus.
A short description of data set [9]: Trypanosoma cruzi growth suppression in host cells – NIH3T3 host cells, beta-gal luminescence, confirmation (AID 2044).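 Note: intracellular parasites grown in NIH/3T3 mouse fibroblasts as host cells; luminescent beta-galactosidase reporter signal from transgenic T. cruzi replicating inside host cells; inhibitors lower the luminescence signal.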 Type of data set: functional, cell-based.
Data set [10] is described as follows: viability of PTEN-deleted HCT116 cells – cell-based, HCT116 PTEN knockout, dose response (AID 1047).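 Note: HCT116 colon tumor cells with PTEN knocked out; cells exposed to compound for 60 hours before readout; potency for loss of cell viability measured by luminescence.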 Type of data set: functional.
Data set [11] can be described thus: NIH3T3 cell viability loss – ATP luminescence, mouse fibroblasts, counter-screen, dose response (AID 2010).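 Note: cells exposed to compound for about 90 hours before reading.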 The format is functional, cell-based. On the technique in general: A counterscreen serves to expose hits that act by an unwanted route or on another target.
The nature of data set [12]: viability of HCT116 lacking mutant beta-catenin – cell-based, human colon tumor, dose response (AID 1045).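 Note: HCT116 colon tumor cells with beta catenin knocked out; cells exposed to compound for 60 hours.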 The format is functional.
The target in data set [13] is Cytochrome P450 2C9 (Homo sapiens, UniProt P11712).
Chain of Cytochrome P450 2C9 (P11712 whole entry): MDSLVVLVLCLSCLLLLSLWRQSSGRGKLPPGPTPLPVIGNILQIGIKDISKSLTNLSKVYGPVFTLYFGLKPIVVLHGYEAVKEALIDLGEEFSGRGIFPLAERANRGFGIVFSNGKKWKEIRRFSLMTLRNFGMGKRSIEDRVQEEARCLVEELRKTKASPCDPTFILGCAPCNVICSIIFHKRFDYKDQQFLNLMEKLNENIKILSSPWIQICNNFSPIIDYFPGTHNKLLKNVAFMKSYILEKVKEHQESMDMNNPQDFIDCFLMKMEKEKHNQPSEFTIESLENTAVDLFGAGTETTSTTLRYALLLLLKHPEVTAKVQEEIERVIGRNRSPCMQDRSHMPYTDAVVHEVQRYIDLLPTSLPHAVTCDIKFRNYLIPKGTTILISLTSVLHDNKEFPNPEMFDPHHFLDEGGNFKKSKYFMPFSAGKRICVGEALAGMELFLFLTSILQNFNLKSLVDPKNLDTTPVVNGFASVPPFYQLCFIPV
Data set [14] has as its system BJ. Description: BJ-TERT fibroblast viability loss – cell-based, RAS-independent, luminescence, dose response (AID 1933). The format is functional. Particulars: Homo sapiens.
Data set [15] has as its system BJ. Nature of the data set: cells. Type of data set: functional, cell-based. The following applies: Homo sapiens.
The test system of data set [16] is BJ. Nature of the data set: BJ-TERT-LT-ST fibroblast viability loss – cell-based, RAS-independent, luminescence, dose response (AID 1935).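 Note: BJ fibroblasts immortalized with TERT plus LT and ST oncogenes.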 The format is functional. Particulars: Homo sapiens.
Data set [17] can be described thus: DRD fibroblast viability loss – cell-based, non-viral oncogenic, luminescence, dose response (AID 1934). The format is functional. The following applies: Homo sapiens.
The target in data set [18] is Cytochrome P450 2D6 (Homo sapiens, UniProt P10635).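 Note: CYP2D6 member of a cytochrome P450 panel assay.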
Chain of Cytochrome P450 2D6 (P10635 whole entry): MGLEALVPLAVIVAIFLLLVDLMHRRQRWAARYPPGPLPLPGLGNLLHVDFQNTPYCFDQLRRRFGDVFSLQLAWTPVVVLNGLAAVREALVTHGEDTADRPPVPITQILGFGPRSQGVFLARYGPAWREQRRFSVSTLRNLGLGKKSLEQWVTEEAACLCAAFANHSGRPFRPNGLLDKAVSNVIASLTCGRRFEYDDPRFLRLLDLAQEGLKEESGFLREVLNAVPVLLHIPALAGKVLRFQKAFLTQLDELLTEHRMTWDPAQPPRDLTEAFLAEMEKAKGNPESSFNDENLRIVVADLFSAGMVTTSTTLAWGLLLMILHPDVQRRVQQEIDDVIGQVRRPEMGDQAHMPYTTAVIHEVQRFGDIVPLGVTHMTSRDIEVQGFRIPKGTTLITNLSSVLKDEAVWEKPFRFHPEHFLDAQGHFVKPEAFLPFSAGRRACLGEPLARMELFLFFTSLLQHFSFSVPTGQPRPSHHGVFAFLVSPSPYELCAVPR
For data set [19], the target named is Cytochrome P450 2C19 (Homo sapiens, UniProt P33261). Nature of the data set: Cytochrome panel assay with activity outcomes. Panel member name: p450-cyp2c19 Compounds with AC50 equal or less than 10 uM are considered active. The format is functional. The following applies: read-out: AC50.
Chain of Cytochrome P450 2C19 (P33261 whole entry): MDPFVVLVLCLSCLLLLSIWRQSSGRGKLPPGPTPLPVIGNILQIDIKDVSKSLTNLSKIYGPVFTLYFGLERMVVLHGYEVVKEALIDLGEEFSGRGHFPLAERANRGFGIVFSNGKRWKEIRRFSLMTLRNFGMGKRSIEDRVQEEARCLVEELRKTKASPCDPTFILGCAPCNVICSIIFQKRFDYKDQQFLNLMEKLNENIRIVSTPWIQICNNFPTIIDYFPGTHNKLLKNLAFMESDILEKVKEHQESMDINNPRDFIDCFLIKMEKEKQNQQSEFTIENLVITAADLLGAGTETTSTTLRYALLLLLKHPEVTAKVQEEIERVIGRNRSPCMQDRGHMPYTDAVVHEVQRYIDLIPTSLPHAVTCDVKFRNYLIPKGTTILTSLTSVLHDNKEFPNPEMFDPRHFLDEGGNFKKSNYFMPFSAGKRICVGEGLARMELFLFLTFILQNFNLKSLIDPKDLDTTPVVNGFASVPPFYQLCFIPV
Data set [20] addresses Cytochrome P450 3A4 (Homo sapiens, UniProt P08684).

The source made the active and inactive calls. Some results are limits rather than exact numbers.

Chain of Cytochrome P450 3A4 (P08684 whole entry): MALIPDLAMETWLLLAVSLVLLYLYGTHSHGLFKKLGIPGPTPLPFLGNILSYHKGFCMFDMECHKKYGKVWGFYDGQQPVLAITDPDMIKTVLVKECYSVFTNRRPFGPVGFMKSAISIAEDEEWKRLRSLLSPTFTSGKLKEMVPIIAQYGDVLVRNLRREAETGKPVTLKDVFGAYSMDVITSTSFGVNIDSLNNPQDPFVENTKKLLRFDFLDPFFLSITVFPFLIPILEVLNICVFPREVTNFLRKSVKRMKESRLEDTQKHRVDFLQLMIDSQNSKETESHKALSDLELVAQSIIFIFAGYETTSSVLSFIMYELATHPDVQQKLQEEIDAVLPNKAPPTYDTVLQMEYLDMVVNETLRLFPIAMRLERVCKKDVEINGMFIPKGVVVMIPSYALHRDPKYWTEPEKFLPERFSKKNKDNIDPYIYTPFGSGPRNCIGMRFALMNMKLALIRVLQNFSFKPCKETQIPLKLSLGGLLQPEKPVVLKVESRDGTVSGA

What is called EC50 is the concentration giving half of the maximal effect. The term IC50 denotes the midpoint of a concentration-inhibition curve. Consider `Cc1ccccc1Cn1cc(NC(=O)c2noc(C(C)C)c2[N+](=O)[O-])cn1`, for which the EC50 in data set [1], in data set [2] and in data set [3] was > 120 µM (not active) in each case. Further, the IC50 in [4] was 7.8 µM (active).

For the compound `COc1cccc(/C=C(/C#N)c2ccc(F)cc2)c1OCc1cccc(C(=O)O)c1`, the IC50 in data set [5] is 43.6 µM (active).

`CN(C)CCCNc1oc(/C=C/c2ccccc2)nc1C#N`: the IC50 in data set [5] is 45.3 µM (active).

The term GI50 denotes the concentration that inhibits growth by half. Regarding `COc1cc(C2c3cc4c(cc3[C@@H](Nc3ccc(C#N)cc3)C3COC(=O)[C@H]23)OCO4)cc(OC)c1O` (some centres not stated), the GI50 in data set [6] is 0.352 µM (active); in data set [7], 0.0736 µM (active); in data set [8] it was 0.00998 µM (active).

As for `COc1ccc(S(=O)(=O)N/N=C/C(=O)O)cc1`, the GI50 in data set [6] was 212 µM (inactive); in data set [7], 360 µM (inactive); in [8] it was 255 µM (inactive).

On to `OC(CNc1ccccc1)COc1ccc(OCC(O)CNc2ccccc2)cc1` (configuration not stated), for which the EC50 is 3.54 µM (active) in data set [9], 15.6 µM (active) in data set [10], > 60 µM (not active) in [11] and 15 µM (active) in [12].

Turning to `CCCn1c(-c2ccc[nH]c2=O)nc2cc(C)c(C)cc21`, the half-inhibitory concentration (IC50) in data set [5] was 23.8 µM (active).

A word on the AC50: it is the midpoint of the concentration-response curve, whichever way the signal moves. In the case of `COc1ccccc1CC(=O)O/N=C(\N)Cc1cccc2ccccc12`, the AC50 result in [13] was “inconclusive”.

`COc1ccc(-n2c(SC(C)C(=O)Nc3ncc(Cl)cc3Cl)nc3ccccc32)cc1` (configuration not stated): the EC50 is 12.6 µM (active) in data set [1]; 29.8 µM (active) in [14]; 38.4 µM (active) in data set [2]; 22.3 µM (active) in data set [15]; > 150 µM (not active) in data set [16]; 89.7 µM (active) in data set [17].

In the case of `Cc1c(CNc2ccc(Cl)c(C(=O)NC(CC(=O)O)C(=O)O)c2)ccc2nc(N)nc(N)c12` (configuration not stated), the figures for the GI50 in data set [6], in data set [7] and in [8] were 0.049 µM (active), 0.043 µM (active) and 0.0339 µM (active), respectively.

In the case of `CC(C)(C)S(=O)(=O)c1cnc2c(-c3ccc(Cl)cc3)cnn2c1N`, the figures for the EC50 in [10] and in data set [12] were 10.3 µM (active) and 11.8 µM (active), respectively.

Take `CN(C)c1nc(-c2cccnc2)nc2ccccc12`: the AC50 result in data set [13] is listed as “inconclusive”.

As for `CCCc1cc2c(cc1NC(=O)c1ccccc1Cl)OCO2`, the AC50 in data set [18] was 28.2 µM (inconclusive); in data set [13], “inconclusive”.

Turning to `COc1ccc(-c2[nH]c(-c3ccc4c(c3)OCO4)nc2-c2ccccc2)cc1`, the EC50 was 15.9 µM (active) in [10] and 20.7 µM (active) in [12].

`O=C(/C=C/c1ccccc1Cl)NCCN1CCOCC1`: the values for the AC50 in data set [19], in data set [20] and in data set [13] were 5.01 µM (inconclusive), 15.8 µM (inconclusive) and “inconclusive”, respectively.
